Literature values as cited in US5985868A, “Methods and compositions for treating androgen-dependant diseases using optically pure R-(-) casodex” (Sepracor Inc., priority 1998, dated 1999).

Key:
[1] = system: glucocorticoid activity
[2] = system: serum testosterone, estradiol and LH; settings: observed at all doses (10-50 mg p.o. per day)
[3] = estimated from oral studies
[4] = racemic casodex at 30 or 50 mg
[5] = system: peripheral androgen receptors
[6] = system: prostatic acid phosphatase; settings: human volunteers, 10-50 mg p.o. per day
[7] = control of morning sickness during pregnancy
[8] = in vivo
[9] = system: beta-adrenergic; settings: L-form versus D-enantiomer
[10] = system: androgen; settings: in vivo
[11] = system: progesterone receptors; settings: at 5 nm
[12] = system: glucocorticoid receptors; settings: at 5 nm

CC(O)(CS(=O)(=O)c1ccc(F)cc1)C(=O)Nc1ccc(C#N)c(C(F)(F)F)c1 (racemic) [racemic casodex, 4'-cyano-3-[(4-fluorophenyl)sulfonyl]-2-hydroxy-2-methyl-3'-(trifluoromethyl)propionanilide]
glucocorticoid activity [1]: no progestational or glucocorticoid activity | elevations of serum testosterone, estradiol and LH [2]: Significant but mild elevations | average half life [3]: about 8 days | patients reporting gynecomastia and breast tenderness [4]: Over half the patients | patients reporting hot flushes [4]: about 20% | patients reporting nausea and vomiting, bone pain, confusion, constipation, headache, diarrhea, dyspepsia, fatigue, dizziness or rash [4]: less than 10% | agonist component at peripheral androgen receptors [5]: little if any agonist component | reduction in prostatic acid phosphatase levels [6]: 50 to 60%

O=C1CCC(N2C(=O)c3ccccc3C2=O)C(=O)N1 [D-enantiomer of thalidomide, thalidomide]
sedative effect [7]: safe and effective sedative

O=C1CCC(N2C(=O)c3ccccc3C2=O)C(=O)N1 [L-enantiomer of thalidomide, thalidomide]
teratogenicity [8]: potent teratogen

CC(C)NCC(O)COc1cccc2ccccc12 [L-form of propranolol, propranolol]
potency relative to the D-enantiomer [9]: 100 times

C[C@](O)(CS(=O)(=O)c1ccc(F)cc1)C(=O)Nc1ccc(C#N)c(C(F)(F)F)c1 [R-(-)-casodex, N-[4-cyano-3-(trifluoromethyl)phenyl]-3-[(4-fluorophenyl)sulfonyl]-2-hydroxy-2-methylpropanamide]
ED50 in inhibiting androgen in rats [10]: 0.5 mg/kg

C[C@]1(O)CC[C@H]2[C@@H]3CCC4=CC(=O)CCC4=C3C=C[C@@]21C [[^3 H]-R1881, methyltrienolone]
binding to progesterone receptors [11]: approximately 5% | binding to glucocorticoid receptors [12]: approximately 5%
